Measurements as given in patent publication US20250011368A1, “DLL3 TARGETING PEPTIDES AND CONSTRUCTS THEREOF” (MARIANA ONCOLOGY INC., priority 2023, published 2025).
Numbered stars: 1 amine (or outer) side, 2 acyl side, 3 side chain; on linkers, the order of the positions; unused ones are H or OH. Bridge positions count the residues as written; N and C are the ends. Square brackets hold non-standard residues; d marks the D form. Side chains are listed from the residue outwards. Peptide text beside a SMILES is read from it. * marks the point of attachment. Ala(piperidin-4-yl) = O=C([C@H](CC1CCN([*:3])CC1)N[*:1])[*:2]; DOTA = O=C(O)CN1CCN(CC(=O)O)CCN(CC(=O)*)CCN(CC(=O)O)CC1; 2Nal = N[C@@H](Cc1ccc2ccccc2c1)C(=O)O; 3Pal = N[C@@H](Cc1cccnc1)C(=O)O; Chg = N[C@H](C(=O)O)C1CCCCC1; Ahx = NCCCCCC(=O)O

Assays:
SHP-77 tumors = assay: Ex vivo biodistribution of radiolabeled peptides in nude mice bearing SHP-77 tumors; settings: [177Lu]Lu labelling, nude mice bearing SHP-77 tumors (n = 3), 24 hours post-injection
Procedure: Mice were intravenously injected (via the lateral tail vein) with a bolus dose of the radiolabeled peptides for ex vivo biodistribution studies when tumor volumes were in range of 200-400 mm^3 for xenograft mice and when age of the mice was 5-7 weeks for tumor naïve mice studies. To assess the amount of radionuclide injected into individual mice the syringe was assayed in a dose calibrator before and after injection for [^177Lu]Lu-peptide.
Mice were euthanized at pre-determined time points and selected tissues were resected and collected into pre-weighed tubes. The tubes were then reweighed post resection, the difference giving the weight of each tissue. Radioactivity in each tissue was measured using a gamma counter. Counts were decay corrected to the time of injection and percentage of injected activity per gram (% IA/g) was calculated for each tissue based on the injected activity into each individual mouse. Injected activity was converted to counts based on the sensitivity of the gamma counter. The counts in tissue were then converted to the percentage of injected activity and this was divided by the mass of tissue to give % IA/g.

human DLL3 = target: T1, human DLL3 (Homo sapiens, UniProt Q9NYJ7); assay: Affinity determination by Surface Plasmon Resonance (SPR); format: binding; settings: 25° C., biotinylated human DLL3 immobilized on streptavidin sensor chip, 1:1 binding model; read-out: SPR KD
T1 sequence (Q9NYJ7 27-618): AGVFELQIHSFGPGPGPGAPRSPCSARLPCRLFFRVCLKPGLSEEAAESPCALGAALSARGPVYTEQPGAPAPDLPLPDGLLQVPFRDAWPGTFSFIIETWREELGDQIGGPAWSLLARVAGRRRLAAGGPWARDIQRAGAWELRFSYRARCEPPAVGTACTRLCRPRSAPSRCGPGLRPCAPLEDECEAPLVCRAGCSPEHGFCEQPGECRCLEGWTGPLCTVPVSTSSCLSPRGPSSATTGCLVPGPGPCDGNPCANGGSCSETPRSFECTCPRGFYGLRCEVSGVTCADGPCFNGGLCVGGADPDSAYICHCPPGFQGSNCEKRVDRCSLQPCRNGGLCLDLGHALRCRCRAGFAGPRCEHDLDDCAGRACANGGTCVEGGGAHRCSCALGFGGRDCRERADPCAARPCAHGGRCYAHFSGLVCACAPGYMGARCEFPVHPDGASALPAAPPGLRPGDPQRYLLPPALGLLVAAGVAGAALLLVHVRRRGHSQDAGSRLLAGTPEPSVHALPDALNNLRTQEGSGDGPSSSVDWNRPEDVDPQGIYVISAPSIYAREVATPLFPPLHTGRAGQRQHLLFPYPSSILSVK
Procedure, shortened: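 Biotinylated human DLL3 was captured on a streptavidin chip with a reference surface. Compounds at several concentrations were injected at 100 μL/minute in phosphate buffer (137 mM NaCl, 2.7 mM KCl, 0.05% P20, 2% DMSO). Affinity and kinetics came from 1:1 model fits of the sensorgrams.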

CT26.DLL3 cells [1] = assay: Internalization (out of bound fraction) of [177Lu]Lu-test peptide, CT26.DLL3 cells; format: cell-based; settings: 1 hour at 37° C., glycine pH 2.5 wash
Procedure: (§1) [^177Lu]LuCl3 was received from venders in HCl solution. For every mCi of [^177Lu]LuCl3 added to the reaction vial (1.5 mL Eppendorf vial), ammonium acetate buffer (0.2 M, pH 4.9, 100 μL, containing 1% w/v ascorbic acid and 6% v/v ethanol) and peptide conjugate (1 nmol). A peptide conjugate of the present disclosure is also referred to herein as a “chelator-peptide”. The pH of the solution was determined to be approximately 5 by using pH strips. The reaction vial was incubated at 80° C., 700 RPM for 17-20 minutes. A sample from the reaction was analyzed by RP-HPLC using an Agilent Infinity II 1260 HPLC to determine reaction completion and radiochemical purity of [^177Lu]Lu-chelator-peptide. HPLC conditions: Waters XBridge BEH C18 Column, 130 Å, 3.5 um, 4.6 mm×250 mm; mobile phase: Solvent A=water (with 0.1% formic acid), solvent B=acetonitrile (with 0.1% formic acid). Gradients: 25-45% B in 10 minutes, 45-65% B in 12 minutes, 65-90% in 6 minutes at a flow rate of 0.5 mL/minute. Required amounts of the product was formulated in 1% PBSA for cell studies.
(§2) The study was conducted using SHP-77, CT26.WT, and CT26.DLL3 cells (Table 7) Adherent cell studies: The cells were cultured in appropriate culture media (20 mL) in tissue culture treated T150 flasks at 37° C. and 5% CO2. Adherent cells were detached (60-70% confluent) using 5 mL Versene at 37° C. for 3 minutes. After confirming the viability using countess and count of detached cells using Trypan blue, the cells were centrifuged at 4° C. for 5 minutes (1,000 rpm). The cell pellet obtained was washed once with PBS and resuspended in 1% PBSA to obtain the desired cell concentration (5-25 million cells/mL).
(§3) Cell numbers used for the assay were in the range of 5 million cells/condition −25 million cells/condition.
(§4) Total uptake: Cells were incubated with 300 μL (0.8 μCi) of the incubation buffer (containing radiolabeled peptide [^177Lu] Lu-test peptide) for 1 hour at 37° C. (Table 8). Post incubation, the cells were pelleted and washed 2 times using cold PBS+1% BSA. The supernatant and washes were combined and counted together as “unbound fraction” in a gamma counter. The cells were then resuspended in 300 μL of 1% PBS+1% BSA and counted in the gamma counter as “bound fraction”.
Internalization: The resuspended cells in 300 μl of 1% PBSA and counted in the gamma counter as “bound fraction” were collected in 1.5 mL Eppendorf tube and pelleted. The pelleted cells were incubated with 300 μl of 50 mM Glycine pH=2.5 for 3 minutes and then pelleted discarding the supernatant. This process was repeated one more time. The pelleted cells were washed with 300 μl of cold 1% PBSA and then resuspended in 300 μl 0.3M NaOH. This was counted in the gamma counter as “internalized fraction”.
(§5) In these Tables, “A” represents %≤25; “B” represents 25<%≤50; “C” represents %>50.

CT26.DLL3 cells [2] = assay: Cell binding (total uptake) of [177Lu]Lu-test peptide, CT26.DLL3 cells; format: cell-based; settings: 1 hour at 37° C.
Procedure: as §1, §2, §3, §4, §5

Compound | kidney uptake (% IA/g) (SHP-77 tumors) | tumor uptake (% IA/g) (SHP-77 tumors) | Kd (human DLL3) [nM] | % Internalization (out of bound fraction) (CT26.DLL3 cells [1]) | % Binding (CT26.DLL3 cells [2])
CC[C@H](C)[C@H](NC(=O)[C@@H](NC(=O)[C@H](Cc1c[nH]c2ccccc12)NC(C)=O)[C@@H](C)O)C(=O)N[C@H]1CSSC[C@@H](C(=O)N[C@@H](Cc2c[nH]c3ccccc23)C(=O)N2CCC[C@H]2C(=O)N[C@H](CCCCNC(=O)CCCCCNC(=O)CN2CCN(CC(=O)O)CCN(CC(=O)O)CCN(CC(=O)O)CC2)C(N)=O)NC(=O)[C@H](CC(=O)O)NC(=O)[C@H](Cc2cnc[nH]2)NC(=O)[C@H](Cc2c[nH]c3ccccc23)NC(=O)[C@H](CC(N)=O)NC(=O)[C@H](CC(N)=O)NC1=O [compound 47, Ac-W-T-I-C(3)-N-N-W-H-D-C(3)-W-P-(D-Lys)-Ahx-DOTA-NH2] (Ac-WTICNNWHDCWP[dK]([Ahx-DOTA])-NH2; disulfide 4-10) | D (% IA/g > 10 in kidney) | A (0 < % IA/g ≤ 5 in tumor) | 1 to 10 | – | –
CC[C@H](C)[C@H](NC(=O)[C@@H](NC(=O)[C@H](Cc1c[nH]c2ccccc12)NC(C)=O)[C@@H](C)O)C(=O)N[C@H]1CSSC[C@@H](C(=O)N[C@@H](Cc2c[nH]c3ccccc23)C(=O)N2CCC[C@H]2C(=O)N[C@H](CCCCNC(=O)CN2CCN(CC(=O)O)CCN(CC(=O)O)CCN(CC(=O)O)CC2)C(N)=O)NC(=O)[C@H](CC(=O)O)NC(=O)[C@H](Cc2cnc[nH]2)NC(=O)[C@H](Cc2ccc3ccccc3c2)NC(=O)[C@H](CC(N)=O)NC(=O)[C@H](CC2CCNCC2)NC1=O [compound 260, Ac-W-T-I-C(3)-[3-(4-piperidinyl)-Ala]-N-(2Nal)-H-D-C(3)-W-P-[D-Lys(DOTA)]-NH2] (Ac-WTIC[Ala(piperidin-4-yl)]N[2Nal]HDCWP[dK](DOTA)-NH2; disulfide 4-10) | C (0 < % IA/g ≤ 10 in kidney) | A (0 < % IA/g ≤ 5 in tumor) | < 1 | – | B (25<%≤50)
CC[C@H](C)[C@H](NC(=O)[C@@H](NC(=O)[C@H](Cc1c[nH]c2ccccc12)NC(C)=O)[C@@H](C)O)C(=O)N[C@H]1CSSC[C@@H](C(=O)N[C@@H](Cc2c[nH]c3ccccc23)C(=O)N2CCC[C@H]2C(=O)N[C@H](CCCCNC(=O)CN2CCN(CC(=O)O)CCN(CC(=O)O)CCN(CC(=O)O)CC2)C(N)=O)NC(=O)[C@H](CC(=O)O)NC(=O)[C@H](Cc2cnc[nH]2)NC(=O)[C@H](Cc2ccc3ccccc3c2)NC(=O)[C@H](Cc2cccnc2)NC(=O)[C@H](CC(N)=O)NC1=O [compound 265, Ac-W-T-I-C(3)-N-(3Pya)-(2Nal)-H-D-C(3)-W-P-[D-Lys(DOTA)]-NH2] (Ac-WTICN[3Pal][2Nal]HDCWP[dK](DOTA)-NH2; disulfide 4-10) | D (% IA/g > 10 in kidney) | A (0 < % IA/g ≤ 5 in tumor) | < 1 | – | –
CC(=O)N[C@@H](Cc1c[nH]c2ccccc12)C(=O)N[C@H](C(=O)N[C@H](C(=O)N[C@H]1CSSC[C@@H](C(=O)N[C@@H](Cc2c[nH]c3ccccc23)C(=O)N2CCC[C@H]2C(=O)N[C@H](CCCCNC(=O)CN2CCN(CC(=O)O)CCN(CC(=O)O)CCN(CC(=O)O)CC2)C(N)=O)NC(=O)[C@H](CC(=O)O)NC(=O)[C@H](Cc2cnc[nH]2)NC(=O)[C@H](Cc2ccc3ccccc3c2)NC(=O)[C@H](CC(N)=O)NC(=O)[C@H](CC2CCNCC2)NC1=O)C1CCCCC1)[C@@H](C)O [compound 280, Ac-W-T-(Chg)-C(3)-[3-(4-piperidinyl)-Ala]-N-(2Nal)-H-D-C(3)-W-P-[D-Lys(DOTA)]-NH2] (Ac-WT[Chg]C[Ala(piperidin-4-yl)]N[2Nal]HDCWP[dK](DOTA)-NH2; disulfide 4-10) | C (0 < % IA/g ≤ 10 in kidney) | A (0 < % IA/g ≤ 5 in tumor) | < 1 | – | –

Further lines, with some results ahead:

kidney uptake (% IA/g) (SHP-77 tumors) | tumor uptake (% IA/g) (SHP-77 tumors) | Kd (human DLL3) [nM] | Compound | % Internalization (out of bound fraction) (CT26.DLL3 cells [1]) | % Binding (CT26.DLL3 cells [2])
D (% IA/g > 10 in kidney) | A (0 < % IA/g ≤ 5 in tumor) | < 1 | CC[C@H](C)[C@H](NC(=O)[C@@H](NC(=O)[C@H](Cc1c[nH]c2ccccc12)NC(C)=O)[C@@H](C)O)C(=O)N[C@H]1CSSC[C@@H](C(=O)N[C@@H](Cc2c[nH]c3ccccc23)C(=O)N2CCC[C@H]2C(=O)N[C@H](CCCCNC(=O)CN2CCN(CC(=O)O)CCN(CC(=O)O)CCN(CC(=O)O)CC2)C(N)=O)NC(=O)[C@H](CC(N)=O)NC(=O)[C@H](Cc2cnc[nH]2)NC(=O)[C@H](Cc2ccc3ccccc3c2)NC(=O)[C@H](CC(N)=O)NC(=O)[C@H](CC(N)=O)NC1=O [compound 211, Ac-W-T-I-C(3)-N-N-(2Nal)-H-(Asn)-C(3)-W-P-[D-Lys(DOTA)]-NH2] (Ac-WTICNN[2Nal]HNCWP[dK](DOTA)-NH2; disulfide 4-10) | B (25<%≤50) | A (%≤25)
– | – | < 1 | CC[C@H](C)[C@H](NC(=O)[C@@H](NC(=O)[C@H](Cc1c[nH]c2ccccc12)NC(C)=O)[C@@H](C)O)C(=O)N[C@H]1CSSC[C@@H](C(=O)N[C@@H](Cc2c[nH]c3ccccc23)C(=O)N2CCC[C@H]2C(=O)N[C@H](CCCCNC(=O)CN2CCN(CC(=O)O)CCN(CC(=O)O)CCN(CC(=O)O)CC2)C(N)=O)NC(=O)[C@H](CC(=O)O)NC(=O)[C@H](CCCCN)NC(=O)[C@H](Cc2ccc3ccccc3c2)NC(=O)[C@H](CC(N)=O)NC(=O)[C@H](CC(N)=O)NC1=O [compound 237, Ac-W-T-I-C(3)-N-N-(2Nal)-K-D-C(3)-W-P-[D-Lys(DOTA)]-NH2] (Ac-WTICNN[2Nal]KDCWP[dK](DOTA)-NH2; disulfide 4-10) | – | A (%≤25)
– | – | < 1 | CC[C@H](C)[C@H](NC(=O)[C@@H](NC(=O)[C@H](Cc1c[nH]c2ccccc12)NC(C)=O)[C@@H](C)O)C(=O)N[C@H]1CSSC[C@@H](C(=O)N[C@@H](Cc2c[nH]c3ccccc23)C(=O)N2CCC[C@H]2C(=O)N[C@H](CCCCNC(=O)CN2CCN(CC(=O)O)CCN(CC(=O)O)CCN(CC(=O)O)CC2)C(N)=O)NC(=O)[C@H](CC(=O)O)NC(=O)[C@H](Cc2cnc[nH]2)NC(=O)[C@H](Cc2ccc3ccccc3c2)NC(=O)[C@H](CC(N)=O)NC(=O)[C@H](CCCCN)NC1=O [compound 259] (Ac-WTICKN[2Nal]HDCWP[dK](DOTA)-NH2; disulfide 4-10) | – | B (25<%≤50)
